Results on two compounds are retold here after US11331271B2, “Buccal, sublingual and intranasal delivery of fospropofol” (The Johns Hopkins University, priority 2016, dated 2022).

Structures are written as SMILES.

One may read the Cmax as the peak of the concentration-time curve.

Series [1] in a line: Buccal delivery of fospropofol in monkeys: plasma and CSF levels. The class given is in vivo, monkey. The method, then: In this example, monkeys were dosed with 50 mg fospropofol by buccal administration. Plasma and CSF were collected before treatment (graphed as t=0), 15 minutes, 30 minutes, 1 hr and 2 hr. Samples were analyzed for propofol and fospropofol by LCMS.
Series [2] is described as follows: Human Study 2: single ascending oral dose, plasma pharmacokinetics. The format is in vivo. Here is the method:
In human study 1, fospropofol disodium was formulated as a sterile aqueous solution at a concentration of 20 mg/mL. Each vial provided contained 20 mL of solution, suitable for intravenous injection. Fospropofol was administered as a single dose of 400 mg orally, directly into the duodenum by gastroscopy or intravenously over 10 min. In human study 2, fospropofol disodium in capsules (200 mg) or matching placebo was administered orally.
A second single ascending dose study was subsequently performed to assess the safety, tolerability, and pharmacokinetics of oral administration of fospropofol as a capsule. This was a double-blind, randomized, crossover, placebo-controlled, single ascending dose study. Ten healthy volunteers were enrolled, 6 males and 4 females between 18 and 45 years of age inclusive with a body mass index between 18 and 28 kg/m^2. Each subject received four ascending oral doses of fospropofol disodium (200, 600, 1,000 and 1,200 mg) and one of placebo. Placebo was administered randomly, in one of the five periods. Subjects stayed in the clinical research unit over 3 days per treatment for five consecutive treatments. […] Pharmacokinetic parameters, safety and pharmacodynamic effect were assessed in a manner similar to that in Study 1 described above. […]

Series [3] is classed as in vitro ADME.
Description: The SPE cartridges were conditioned by gravity with methanol and 1.0 M ammonium acetate solution in water. The plasma samples with internal standard were loaded on the cartridges, washed with water and 10% methanol/water and eluted with methanol. The tubes were then evaporated under nitrogen and the residues reconstituted with 50/50 methanol/25 mM ammonium acetate in deionized water. The sample extract was then injected onto a reversed phase HPLC Zorbax Eclipse XDB-C18 column. The separated analytes were detected using tandem mass spectrometry (MS/MS) detection. […] The assays were linear with correlation coefficient of (R^2)>0.99 over the range of 10-2,000 ng/mL for rat plasma and 5-1,000 ng/mL for human plasma.
In brief, 4-[tert-octyl] phenol, (internal standard) was added to the plasma samples (0.05 mL for rat or 0.2 mL for human) and extracted using a 3M Empore C-18-SD 4 mm SPE cartridge (Millipore, Billerica, Mass., USA). […] The final eluants (˜0.3 mL) were diluted with 0.3 mL of water, and injected onto an HPLC system equipped with a C-18 analytical column (5 μm, 150×3.9 mm) and fluorescence detector set at excitation and emission wave lengths of 275 and 310 nm, respectively. […] All rat and human study samples in this study were analyzed without exceeding the stability sample integrity during validation of the methods.
For series [4] the following is noted: IV lipid emulsion, animals; cited from earlier work.

`CC(C)c1cccc(C(C)C)c1OCOP(=O)(O)O` [fospropofol]: in series [1] (50 mg buccal), the “time of fospropofol peak in plasma” value fell in the range of 30 to 60 min. Further, in series [1] (50 mg buccal, 2 hr), the “fospropofol plasma level by 2 hr” value is “below the limit of quantification”. For the same compound, the concentration at 15 min in series [1] (monkey, CSF, other: buccal, 50 mg buccal, 15 minutes, read-out: CSF fospropofol, one high point) was approximately 850 nM. The compound further returned a Cmax in series [1] (monkey, plasma, 50 mg buccal) of approximately 150 nM. Further, the “fospropofol exposure vs dose” value in series [2] (PO capsules 200-1,200 mg) is “dose related increase”. The “time stable at −20° C. in human plasma” value in series [3] is given as 464 days.
For the compound `CC(C)c1cccc(C(C)C)c1O` [propofol, 2,6-diisopropylphenol], the “extraction by the liver” value in series [4] was 80%. Further, in series [1] (50 mg fospropofol buccal, at 2 hours), the “highest propofol level in plasma” value was “about 500 nM”. In addition, the “propofol in CSF” value in series [1] (50 mg fospropofol buccal, limit of quantitation 10 nM) is on record as “only 2 samples are above the limit of quantitation”. Further, the “propofol exposure vs dose” value in series [2] (PO fospropofol capsules 200-1,200 mg) was “dose related increase”. In series [3], the “time stable at −20° C. in human plasma” value is on record as 347 days.
